According to patent US5185363A, “Urea based lipoxygenase inhibiting compounds” (Abbott Laboratories, priority 1991, dated 1993):

Molecular target: T1, 5-Lipoxygenase from RBL-1 20,000 xg Supernatant (Rattus norvegicus, UniProt P12527)
T1 construct: supermatant from 1.5 million homogenized RBL-1 cells; endogenous in cells; host or cells: RBL-1 cells, 20,000 x g supernatant of homogenate
T1 sequence (P12527 1-673): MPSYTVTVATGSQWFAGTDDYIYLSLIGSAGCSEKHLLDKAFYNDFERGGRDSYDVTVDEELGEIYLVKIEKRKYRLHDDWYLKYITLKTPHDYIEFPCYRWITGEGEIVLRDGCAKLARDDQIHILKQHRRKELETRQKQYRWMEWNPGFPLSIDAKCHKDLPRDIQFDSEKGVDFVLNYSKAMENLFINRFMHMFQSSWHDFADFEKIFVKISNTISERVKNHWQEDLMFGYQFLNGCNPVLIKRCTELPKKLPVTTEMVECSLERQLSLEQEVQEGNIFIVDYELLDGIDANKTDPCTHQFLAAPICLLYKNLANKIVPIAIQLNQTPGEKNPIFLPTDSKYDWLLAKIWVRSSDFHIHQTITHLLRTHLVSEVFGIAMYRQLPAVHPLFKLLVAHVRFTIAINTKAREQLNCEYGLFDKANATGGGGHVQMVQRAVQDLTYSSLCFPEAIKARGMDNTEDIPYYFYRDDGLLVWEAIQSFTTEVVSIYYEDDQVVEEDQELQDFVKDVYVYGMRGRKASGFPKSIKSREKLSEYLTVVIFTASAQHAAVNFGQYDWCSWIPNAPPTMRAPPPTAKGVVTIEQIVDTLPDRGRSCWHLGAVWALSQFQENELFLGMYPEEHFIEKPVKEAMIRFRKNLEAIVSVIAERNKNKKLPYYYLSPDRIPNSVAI
Assay: In vitro inhibition of 5-lipoxygenase from RBL-1 20,000 xg supernatant
Assay type: biochemical
Settings: radiolabeled arachidonic acid
Procedure: Assays to determine 5-lipoxygenase inhibitory activity were performed in […] incubations containing the 20,000xg supermatant from 1.5 million homogenized RBL-1 cells and various concentrations of the test compound. Reactions were initiated by addition of radiolabeled arachidonic acid and terminated by acidification and ether extraction. Reaction products were separated from nonconverted substrate by thin layer chromatography and measured by liquid scintillation spectroscopy. All incubations are performed in triplicate. Inhibition of 5-lipoxygenase activity was calculated as the ratio of the amount of product formed in the presence and absence of inhibitor. […] (Dyer, R.D.; Haviv, F.; Hanel, A. M.; Bornemier, D. A.; Carter, G. W. Fed. Proc., Fed. Am. Soc. Exp. Biol. 1984, 43, 1462A).

Structure (SMILES) | IC50 [nM]
CNC(=O)N(O)C(C)c1ccc(F)c(Br)c1 (stereo not drawn) [Example 114, N-Hydroxy-N-(1-(3-bromo-4-fluorophenyl)ethyl)-N'-methyl urea] | 900
C=CCN(CC=C)c1ccc(C(C)N(O)C(N)=O)cc1 (stereo not drawn) [Example 121, N-Hydroxy-N-(1-(4-bis-allylaminophenyl)ethyl) urea] | 740
CC(c1ccc(F)c(Br)c1)N(O)C(N)=O (stereo not drawn) [Example 122, N-Hydroxy-N-(1-(3-bromo-4-fluorophenyl)ethyl) urea] | 800
CC(c1ccc(SC(C)(C)C)s1)N(O)C(N)=O (stereo not drawn) [Example 149, N-hydroxy-N-[1-(5-{terbutylthio}thien-2-yl)ethyl]urea] | 800
NC(=O)N(O)Cc1csc(Sc2ccccc2)c1 [Example 137, N-hydroxy-N-[5-(phenylthio)thien-3-yl]methyl urea] | 400
NC(=O)N(O)Cc1cccc(Oc2ccccc2)c1 [Example 125] | 400
NC(=O)N(O)Cc1cc(Oc2ccc(Cl)cc2)cs1 [Example 158, N-hydroxy-N-[4-(4-chlorophenoxy)thien-2-yl]methyl urea] | 400
CC(c1ccc(OCCc2ccccc2)cc1)N(O)C(N)=O (stereo not drawn) [Example 8, N-hydroxy-N-(1-(4-(2-phenyl)ethoxyphenyl)ethyl) urea] | 330
CC(C)(C)Sc1ccc(/C=C/CN(O)C(N)=O)s1 [Example 154, N-hydroxy-N-3-[5-(tertbutylthio)thien-2-yl]propenyl urea] | 200
CC(C)(C)c1ccc(Sc2ccsc2CN(O)C(N)=O)cc1 [Example 144, N-hydroxy-N-[3-(4-tertbutylphenylthio)thien-2-yl]methyl urea] | 200
CNC(=O)N(O)Cc1cccc(Oc2ccccc2)c1 [Example 126] | 800
CC(c1ccc(-c2ccccn2)s1)N(O)C(N)=O (stereo not drawn) [Example 48, N-hydroxy-N-(1-(5-pyrid-2-yl)thien-2-yl)ethyl urea] | 1700
NC(=O)N(O)Cc1ccc(Sc2ccccc2)s1 [Example 135, N-hydroxy-N-[5-(phenylthio)thien-2-yl]methyl urea] | 200
COc1ccc(C(C)N(O)C(N)=O)cc1 (stereo not drawn) [Example 116, N-Hydroxy-N-(1-(4-methoxyphenyl)ethyl) urea] | 4400
NC(=O)N(O)Cc1sccc1Sc1ccc(O)cc1 [Example 140, N-hydroxy-N-[3-(4-hydroxyphenylthio)thien-2-yl]methyl urea] | 400
CC(c1ccc(OCc2ccccc2)cc1)N(O)C(=O)N(C)C (stereo not drawn) [Example 3] | 680
Cc1ccc(CC(C)N(O)C(N)=O)s1 (stereo not drawn) [Example 72, N-Hydroxy-N-(2-(1-(5-methylthien-2-yl))propyl) urea] | 800
NC(=O)N(O)Cc1sccc1Sc1ccccn1 [Example 145, N-hydroxy-N-[3-(2-pyridylthio)thien-2-yl]methyl urea] | 1500
NC(=O)N(O)Cc1sccc1Sc1ccc(Br)cc1 [Example 141, N-hydroxy-N-[3-(4-bromophenylthio)thien-2-yl]methyl urea] | 200
CNC(=O)N(O)C(C)c1ccc(F)cc1F (stereo not drawn) [Example 104, N-Hydroxy-N-(1-(2,4-difluorophenyl)ethyl)-N'-methylurea] | 3900
CCCCOc1ccc(C(C)N(O)C(N)=O)cc1 (stereo not drawn) [Example 11, N-hydroxy-N-(1-(4-butoxyphenyl)ethyl) urea] | 1100
Cc1cc(C(C)N(O)C(=O)NCCO)c(C)s1 (stereo not drawn) [Example 60, N-hydroxy-N-(1-(2,5-dimethylthien-3-yl)ethyl)-N'-(2-hydroxyethyl) urea] | 3500
NC(=O)N(O)Cc1sccc1Sc1ccccc1 [Example 134, N-hydroxy-N-[3-(phenylthio)thien-2-yl]methyl urea] | 300
CC(C)(C)Sc1ccsc1CN(O)C(N)=O [Example 147, N-hydroxy-N-[3-(tertbutylthio)thien-2-yl]methyl urea] | 3700
NC(=O)N(O)Cc1sccc1Br [Example 127, N-hydroxy-N-(3-bromothien-2-yl)methyl urea] | 1200
CNC(=O)N(O)C(C)c1ccc(OCc2ccccc2)cc1 (stereo not drawn) [Example 2, N-hydroxy-N-1-(4-phenylmethoxyphenyl) ethyl N'-methyl urea] | 370
NC(=O)N(O)Cc1cc(Br)cs1 [Example 128, N-hydroxy-N-(4-bromothien-2-yl)methyl urea] | 2500

Structure (SMILES) | IC50 [nM]
NC(=O)N(O)Cc1sccc1Sc1ccc(F)cc1 [Example 143, N-hydroxy-N-[3-(4-fluorophenylthio)thien-2-yl]methyl urea] | 300
CC(C)(C)Sc1ccc(CN(O)C(N)=O)s1 [Example 148, N-hydroxy-N-[5-(tertbutylthio)thien-2-yl]methyl urea] | 300
NC(=O)N(O)Cc1ccc(-c2ccccc2)s1 [Example 53, N-hydroxy-N-(1-(5-phenylthien-2-yl)methyl) urea] | 200
CNC(=O)N(O)Cc1ccc(OCc2ccccc2)cc1 [Example 6, N-hydroxy-N-(4-phenylmethoxyphenylmethyl)-N'-methyl-urea] | 540
CNC(=O)N(O)C(C)c1ccc(C)c(Br)c1 (stereo not drawn) [Example 115, N-Hydroxy-N-(1-(3-bromo-4-methylphenyl)ethyl)-N'-methyl urea] | 600
CCOC(=O)CNC(=O)N(O)C(C)c1cc(C)sc1C (stereo not drawn) [Example 59] | 990
CC(c1ccc(Br)s1)N(O)C(N)=O (stereo not drawn) [Example 133, N-hydroxy-N-[1-(5-bromothien-2-yl)ethyl]urea] | 900
COC(=O)CCCNC(=O)N(O)C(C)c1ccsc1 (stereo not drawn) [Example 61] | 2100
CNC(=O)N(O)Cc1ccc(C)s1 [Example 52, N-hydroxy-N-1-(5-methylthien-2-yl)methyl-N'-methyl urea] | 3900
CNC(=O)N(O)C(C)c1ccc(F)cc1 (stereo not drawn) [Example 110, N-Hydroxy-N-(1-(4-fluorophenyl)ethyl)-N'-methyl urea] | 2300
CC(c1ccc(Cc2ccccc2)s1)N(O)C(N)=O (stereo not drawn) [Example 57, N-hydoxy-N-(1-(5-benzylthien-2-yl)ethyl) urea] | 420
NC(=O)N(O)Cc1sccc1Sc1ccc(Cl)cc1 [Example 142, N-hydroxy-N-[3-(4-chlorophenylthio)thien-2-yl]methyl urea] | 300
CC(c1cc(Br)cs1)N(O)C(N)=O (stereo not drawn) [Example 132, N-hydroxy-N-[1-(4-bromothien-2-yl)ethyl]urea] | 900
CNC(=O)N(O)C(C)c1ccc(OC)cc1 (stereo not drawn) [Example 117, N-Hydroxy-N-(1-(4-methoxyphenyl)ethyl)-N'-methyl urea] | 4430
Cc1ccsc1C(C)N(O)C(N)=O (stereo not drawn) [Example 46, N-hydroxy-N-1-(3-methylthien-2-yl)ethyl urea] | 2100
CNC(=O)N(O)C(C)c1ccc(Cl)c(C)c1 (stereo not drawn) [Example 124, N-Hydroxy-N-(1-(4-chloro-3-methylphenyl)ethyl)-N'-methyl urea] | 600
CNC(=O)N(O)Cc1ccc(-c2ccccc2)s1 [Example 54, N-hydroxy-N-(1-(5-phenylthien-2-yl)methyl)-N'-methyl urea] | 310
CCOC(=O)CNC(=O)N(O)C(C)c1ccsc1 (stereo not drawn) [Example 62] | 4200
CNC(=O)N(O)C(C)c1ccc(Cl)cc1 (stereo not drawn) [Example 108, N-Hydroxy-N-(1-(4-chlorophenyl)ethyl)-N'-methyl urea] | 400
CCCCOc1cccc(C(C)N(O)C(N)=O)c1 (stereo not drawn) [Example 13, N-hydroxy-N-(1-(3-butoxyphenyl)ethyl) urea] | 2800
CC(c1ccc2ccccc2c1)N(O)C(=O)NO (stereo not drawn) [Example 10, N,N'-dihydroxy-N-(1-(2-naphthyl)ethyl) urea] | 870
NC(=O)N(O)CCCc1ccsc1 [Example 69, N-hydroxy-N-(3-(1-thien-3-yl)propyl) urea] | 1500
NC(=O)N(O)Cc1ccc(Br)s1 [Example 130, N-hydroxy-N-(5-bromothien-2-yl)methyl urea] | 900
CNC(=O)N(O)C(C)c1ccc(Br)cc1 (stereo not drawn) [Example 98, N-Hydroxy-N-1-(4-bromophenyl)ethyl-N'-methyl-urea] | 1100
Cc1cc(C(C)N(O)C(N)=O)ccc1Cl (stereo not drawn) [Example 123, N-Hydroxy-N-(1-(4-chloro-3-methylphenyl)ethyl) urea] | 500
NC(=O)N(O)Cc1ccc(Oc2ccccc2)s1 [Example 155, N-hydroxy-N-[5-(phenoxy)thien-2-yl]methyl urea] | 700
CC(c1ccc(Sc2ccccc2)s1)N(O)C(N)=O (stereo not drawn) [Example 139, N-hydroxy-N-[1-(5-(phenylthio)-thien-2-yl)ethyl]urea] | 400
